# Source: ChEMBL document CHEMBL1201862, “PubChem BioAssay data set” (2004)
# The source made the active and inactive calls.
# What was measured:
# [1] = NIH-3T3 fibroblast cytotoxicity, dose response, cytotoxicity control, cell-based, fluorescence, Alamar Blue, secondary assay (AID 2327); assay type: functional;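 also: NIH-3T3 mouse fibroblasts cultured with fluconazole at 8 µg/mL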
# [2] = luciferase reporter signal suppression in cells – H4 neuroglioma cells, luminescence, dose response (AID 1990); assay type: functional, cell-based
# [3] = luciferase reporter signal reduction – luminescence, H4-C neuroglioblastoma cells, dose response (AID 2458); assay type: functional, cell-based;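 also: H4 neuroglioblastoma cells stably carrying a luciferase reporter gene fusion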
# cells [4] = assay type: functional, cell-based
# [5] = Luminescence Cell-Based Dose Response HTS to Identify Inhibitors of 5'UTR Stem-Loop Driven Prion Protein mRNA Translation in H4 Neuroglioblastoma Cells. [Related pubchem assays: 1827 (Project Summary), 1813 (Primary HTS)]; assay type: functional
# [6] = target: T1, Heat shock factor protein 1 (Mus musculus, UniProt P38532); experiment: decrease of HSF1-responsive luciferase luminescence – cell-based, NIH3T3, dose retest, confirmation (AID 2382); assay type: functional;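 also: NIH3T3 fibroblasts with HSF1-driven luciferase reporter stressed by proteasome inhibitor MG132; luminescence from HSF1-driven luciferase expression after 8 hours of MG132 stress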
# T1 sequence (P38532 whole entry): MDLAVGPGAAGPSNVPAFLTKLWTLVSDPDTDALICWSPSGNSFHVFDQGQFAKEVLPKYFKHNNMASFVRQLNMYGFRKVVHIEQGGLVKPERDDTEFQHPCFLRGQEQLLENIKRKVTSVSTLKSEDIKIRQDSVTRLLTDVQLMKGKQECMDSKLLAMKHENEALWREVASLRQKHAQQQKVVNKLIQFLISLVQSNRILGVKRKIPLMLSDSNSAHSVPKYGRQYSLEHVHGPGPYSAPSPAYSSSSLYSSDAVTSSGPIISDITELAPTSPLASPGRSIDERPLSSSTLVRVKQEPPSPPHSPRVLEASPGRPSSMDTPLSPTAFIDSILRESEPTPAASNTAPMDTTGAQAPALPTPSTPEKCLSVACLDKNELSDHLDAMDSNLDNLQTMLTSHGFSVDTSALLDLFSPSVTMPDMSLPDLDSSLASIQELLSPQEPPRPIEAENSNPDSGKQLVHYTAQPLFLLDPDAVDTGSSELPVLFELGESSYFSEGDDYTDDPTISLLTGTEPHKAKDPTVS
# [7] = alpha-synuclein stem-loop luciferase translation blockers – H4 neuroglioma cells, luminescence, confirmation (AID 1988); assay type: functional, cell-based
# [8] = fluconazole-exposed Candida albicans growth modulators – fluorescence, retest, confirmation (AID 2467); assay type: functional, cell-based
# [9] = alpha-synuclein stem-loop translation blockers – luminescence, H4 neuroglioblastoma cells, dose confirmation, confirmation (AID 2454); assay type: functional, cell-based;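 also: H4 neuroglioblastoma cells carrying an alpha-synuclein 5'UTR luciferase reporter; potency for inhibition of the luciferase signal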
# Jurkat = experiment: blockers of NF-kB activation in T cells – Jurkat, luciferase reporter, luminescence, B- and T-cell, dose response (AID 489004); assay type: functional, cell-based; settings: Homo sapiens;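 also: NF-kB luciferase reporter Jurkat cells stimulated with PMA plus ionomycin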
# [10] = HEK-293T viability loss, compound-treated – cell-based, uHTS hits, cytotoxicity control for B/T-cell NF-kB inhibitor project, dose response (AID 489019); assay type: functional;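 also: IC50 reflects cytotoxicity as loss of cell viability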
# BJ = experiment: growth inhibition of engineered Ras-driven BJ cells – cell-based, alamar blue fluorescence, cherrypicked samples, dose response (AID 2631); assay type: functional; settings: Homo sapiens;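 also: confirmatory dose-response assay in RAS-dependent BJ fibroblasts engineered with TERT, LT and ST, with cytotoxicity read by fluorescence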
# [11] = reduction of Shn3 3'UTR-driven luciferase in osteoblasts – cell-based, Clone20 osteoblasts, firefly luciferase, cherry-picked, dose response (AID 624132); assay type: functional;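 also: firefly luciferase luminescence from reporter carrying the Shn3 3'UTR in osteoblasts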
# [12] = loss of viability in HepG2 cells – cell-based, CellTiter-Glo, cherry-picked, cytotoxicity control for Shn3 inhibitor project, dose response (AID 624134); assay type: functional
# [13] = non-specific 3'UTR reporter inhibition in Clone20-Shn3RL – cell-based, Renilla luciferase, cherry-picked, counter-screen for Shn3 inhibitor project, dose response (AID 624133); assay type: functional
# [14] = Fluorescence-based cell-based high throughput dose response assay for inhibitors of the interaction of nucleotide-binding oligomerization domain containing 2 (NOD2) and the receptor-interacting serine-threonine kinase 2 (RIPK2).; assay type: functional; settings: Homo sapiens
# Paired box protein Pax-8 = Paired box protein Pax-8 (Homo sapiens, UniProt Q06710); experiment: PAX8 transcriptional activity inhibition in RMG-I – RMG-I cells, luciferase, cherry-pick, dose response (AID 687027); assay type: functional, cell-based;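 also: luciferase reporter driven by Pax8 target thyroperoxidase promoter measured by SteadyGlo luminescence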
# [15] = Luminescence Cell-Based/Microorganism Confirmation at Dose of Inhibitors of Trypanosoma cruzi Infection. [Related pubchem assays: 1885, 1968 ]; assay type: functional
# [16] = Trypanosoma cruzi growth suppression in host cells – NIH3T3 host cells, beta-gal luminescence, confirmation (AID 2044); assay type: functional, cell-based;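 also: intracellular parasites grown in NIH/3T3 mouse fibroblasts as host cells; luminescent beta-galactosidase reporter signal from transgenic T. cruzi replicating inside host cells; inhibitors lower the luminescence signal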
# [17] = Luminescence Cell-Based Secondary HTS screen to identify cytotoxic compounds of NIH3T3 cells. [Related pubchem assays: 1885, 1968 ]; assay type: functional
# [18] = NIH3T3 cell viability loss – ATP luminescence, mouse fibroblasts, counter-screen, dose response (AID 2010); assay type: functional, cell-based;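 also: cells exposed to compound for about 90 hours before reading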
# [19] = T. cruzi infection blockers in NIH3T3 cells – beta-gal luminescence, NIH3T3 host cells, confirmation (AID 2630); assay type: functional, cell-based; settings: Mus musculus
# cells [20] = experiment: cells
# [21] = target: Lysine-specific demethylase 4C (Homo sapiens, UniProt Q9H3R0); experiment: inhibition of JMJD2C H3K9me3 demethylation – biochemical, DELFIA europium, cherry-picked samples, dose response (AID 488835); assay type: functional
# Lysine-specific demethylase 4C, sequence (Q9H3R0 whole entry): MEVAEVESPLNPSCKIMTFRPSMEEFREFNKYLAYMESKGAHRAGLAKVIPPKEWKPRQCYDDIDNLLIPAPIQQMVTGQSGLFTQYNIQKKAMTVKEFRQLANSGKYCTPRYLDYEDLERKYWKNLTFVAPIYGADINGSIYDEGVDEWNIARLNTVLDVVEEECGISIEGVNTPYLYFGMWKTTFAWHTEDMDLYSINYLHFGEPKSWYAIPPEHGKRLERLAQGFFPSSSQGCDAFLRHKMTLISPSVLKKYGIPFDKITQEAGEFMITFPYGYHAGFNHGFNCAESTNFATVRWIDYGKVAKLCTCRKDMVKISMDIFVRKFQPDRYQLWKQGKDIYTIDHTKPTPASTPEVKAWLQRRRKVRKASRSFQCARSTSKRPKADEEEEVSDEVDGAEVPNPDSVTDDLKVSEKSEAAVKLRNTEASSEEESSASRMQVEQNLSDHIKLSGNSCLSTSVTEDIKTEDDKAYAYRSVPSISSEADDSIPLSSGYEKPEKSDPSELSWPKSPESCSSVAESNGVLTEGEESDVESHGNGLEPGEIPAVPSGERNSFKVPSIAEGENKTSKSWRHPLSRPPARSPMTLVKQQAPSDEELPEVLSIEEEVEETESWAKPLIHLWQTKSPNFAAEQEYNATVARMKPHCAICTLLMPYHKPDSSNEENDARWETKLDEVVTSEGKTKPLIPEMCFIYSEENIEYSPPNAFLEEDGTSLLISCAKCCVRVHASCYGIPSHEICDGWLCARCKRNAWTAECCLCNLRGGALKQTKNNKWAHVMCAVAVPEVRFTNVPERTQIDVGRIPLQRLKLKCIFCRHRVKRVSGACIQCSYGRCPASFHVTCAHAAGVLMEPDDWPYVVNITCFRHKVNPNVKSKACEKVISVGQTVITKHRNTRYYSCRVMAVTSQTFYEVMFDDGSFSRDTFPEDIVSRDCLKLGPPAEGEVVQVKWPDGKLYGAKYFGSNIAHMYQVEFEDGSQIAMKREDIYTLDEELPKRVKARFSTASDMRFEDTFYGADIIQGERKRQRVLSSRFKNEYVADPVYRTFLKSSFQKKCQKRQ
# Paired box protein Pax-8, sequence (Q06710 whole entry): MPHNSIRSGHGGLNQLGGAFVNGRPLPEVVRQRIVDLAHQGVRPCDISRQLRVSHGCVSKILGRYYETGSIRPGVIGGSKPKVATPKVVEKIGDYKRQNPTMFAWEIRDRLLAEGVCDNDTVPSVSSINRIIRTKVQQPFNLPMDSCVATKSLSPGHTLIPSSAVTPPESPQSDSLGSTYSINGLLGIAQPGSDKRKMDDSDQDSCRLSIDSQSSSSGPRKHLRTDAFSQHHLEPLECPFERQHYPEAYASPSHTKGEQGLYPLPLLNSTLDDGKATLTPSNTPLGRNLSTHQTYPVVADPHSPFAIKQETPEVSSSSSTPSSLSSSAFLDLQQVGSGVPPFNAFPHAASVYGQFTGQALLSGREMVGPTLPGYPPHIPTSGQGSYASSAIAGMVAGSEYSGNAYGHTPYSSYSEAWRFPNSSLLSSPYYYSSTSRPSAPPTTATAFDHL
smiles,measurement,setting,value
COc1ccc(C[C@H]2NC[C@H](O)[C@H]2OC(C)=O)cc1 [ANISOMYCIN],EC50,[1],< 0.12 µM (active)
same,EC50,[2],< 0.1 µM (active)
same,EC50,[3],0.091 µM (active)
same,EC50,cells [4],0.121 µM (active)
same,EC50,[5],> 120 µM (not active)
same,EC50,[6],0.243 µM (active)
same,EC50,[7],< 0.1 µM (active)
same,EC50,[8],1.03 µM (active)
same,EC50,[9],0.104 µM (active)
same,IC50,Jurkat,< 0.16 µM (active)
same,IC50,[10],> 80 µM (inactive)
same,EC50,BJ,0.0308 µM (active)
same,AC50,[11],0.882 µM (active)
same,AC50,[12],> 70 µM (inactive)
same,AC50,[13],3.44 µM (active)
same,IC50,[14],49.8 µM (inactive)
same,AC50,Paired box protein Pax-8,< 0.26 µM (active)
O=S(=O)(NCC(c1cccnc1)N1CCN(c2ccc(F)cc2)CC1)c1ccccc1 (centres undefined),EC50,[15],0.057 µM (active)
same,EC50,[16],< 0.1 µM (active)
same,EC50,[17],> 195 µM (not active)
same,EC50,[18],> 60 µM (not active)
same,EC50,[19],0.057 µM (active)
same,EC50,cells [20],0.066 µM (active)
COc1ccc(-c2nc(C#N)c(NCc3ccc(F)cc3)o2)cc1OC,AC50,[21],59.4 µM (active)
